≈ marks a conversion by molar mass, not a printed value.

What all share (format): functional
Test [1] concerns Staphylococcus epidermidis. Briefly: Antibacterial activity against Staphylococcus epidermidis NCIM 2493 assessed as diameter of growth zone inhibition after 24 hr by disk diffusion method.
Test [2] relates to Proteus vulgaris. Briefly: Antibacterial activity against Proteus vulgaris NCIM 2027 assessed as diameter of growth zone inhibition after 24 hr by disk diffusion method.
The subject of test [3] is Escherichia coli. Briefly: Antibacterial activity against Escherichia coli NCIM 2065 assessed as diameter of growth zone inhibition after 24 hr by disk diffusion method.
Test [4] has as its system Pseudomonas aeruginosa. Briefly: Antibacterial activity against Pseudomonas aeruginosa NCIM 2036 assessed as diameter of growth zone inhibition after 24 hr by disk diffusion method. On the technique in general: Agar diffusion results depend on both activity and mobility in agar.
In test [5] the test system is Bacillus subtilis. Description: Antibacterial activity against Bacillus subtilis NCIM 2156 assessed as diameter of growth zone inhibition after 24 hr by disk diffusion method.
Test [6] deals with Proteus vulgaris. Briefly: Antibacterial activity against Proteus vulgaris NCIM 2027 assessed as growth inhibition after 48 hr by NCCLS broth dilution method. To be noted: NCIM 2027, 48 h.
Test [7] relates to Staphylococcus aureus. Description: Antibacterial activity against Staphylococcus aureus NCIM 2079 assessed as diameter of growth zone inhibition after 24 hr by disk diffusion method.
For test [8], the system named is Staphylococcus epidermidis. Description: Antibacterial activity against Staphylococcus epidermidis NCIM 2493 assessed as growth inhibition after 48 hr by NCCLS broth dilution method. To be noted: NCIM 2493, 48 h. On the technique in general: Dilution methods test growth across graded concentrations, often in twofold steps.
The test system of test [9] is Escherichia coli. Briefly: Antibacterial activity against Escherichia coli NCIM 2065 assessed as growth inhibition after 48 hr by NCCLS broth dilution method. To be noted: NCIM 2065, 48 h.
For test [10], the system named is Bacillus subtilis. Description: Antibacterial activity against Bacillus subtilis NCIM 2156 assessed as growth inhibition after 48 hr by NCCLS broth dilution method. The settings on record: NCIM 2156, 48 h.
Test [11] relates to Pseudomonas aeruginosa. Briefly: Antibacterial activity against Pseudomonas aeruginosa NCIM 2036 assessed as growth inhibition after 48 hr by NCCLS broth dilution method. The settings on record: NCIM 2036, 48 h.
Test [12] relates to Staphylococcus aureus. Briefly: Antibacterial activity against Staphylococcus aureus NCIM 2079 assessed as growth inhibition after 48 hr by NCCLS broth dilution method. To be noted: NCIM 2079, 48 h.

Regarding `Cc1cc(/N=C2\C(=O)Nc3ccc([N+](=O)[O-])cc32)ccc1N1C(=O)c2ccc(Cl)cc2C1=O`, the “diameter of the inhibition zone (DIZ)” value in [1] is on record as 20 mm; in the test with Proteus vulgaris [2] it was 11 mm; with Escherichia coli [3], 22 mm; with Pseudomonas aeruginosa [4] it was 18 mm; in the test with Bacillus subtilis [5], 16 mm; with Staphylococcus aureus [7], 20 mm. Also, the MIC (as a rule, the lowest concentration found to suppress growth) worked out at 15 µg/mL (≈ 32.5 µM) with Proteus vulgaris [6]; 10 µg/mL (≈ 21.7 µM) in [8]; 10 µg/mL (≈ 21.7 µM) with Escherichia coli [9]; 15 µg/mL (≈ 32.5 µM) with Bacillus subtilis [10]; 10 µg/mL (≈ 21.7 µM) with Pseudomonas aeruginosa [11]; 10 µg/mL (≈ 21.7 µM) in the test with Staphylococcus aureus [12].
Turning to `Cc1ccc2c(c1)/C(=N/c1ccc(N3C(=O)c4ccc(Cl)cc4C3=O)c(C)c1)C(=O)N2`, the “diameter of the inhibition zone (DIZ)” value worked out at 10 mm in test [1]; 10 mm with Proteus vulgaris [2]; 12 mm in the test on Escherichia coli [3]; 16 mm with Pseudomonas aeruginosa [4]; 12 mm in the test on Bacillus subtilis [5]; 20 mm with Staphylococcus aureus [7]. Besides, the MIC in the test on Proteus vulgaris [6] came to 20 µg/mL (≈ 46.5 µM); in test [8], 15 µg/mL (≈ 34.9 µM); in the test on Escherichia coli [9], 20 µg/mL (≈ 46.5 µM); in the test on Bacillus subtilis [10] it was 25 µg/mL (≈ 58.2 µM); with Pseudomonas aeruginosa [11] it was 15 µg/mL (≈ 34.9 µM); in the test with Staphylococcus aureus [12] it was 10 µg/mL (≈ 23.3 µM).
`O=C(O)c1cn(C2CC2)c2cc(N3CCNCC3)c(F)cc2c1=O` [CIPROFLOXACIN]: the “diameter of the inhibition zone (DIZ)” value in [1] turned out to be 28 mm; with Proteus vulgaris [2], 28 mm; in the test on Escherichia coli [3] it was 30 mm; in the test on Pseudomonas aeruginosa [4] it was 24 mm; in the test on Bacillus subtilis [5], 22 mm; with Staphylococcus aureus [7] it was 26 mm. In addition, the MIC (in the test with Proteus vulgaris [6]; in test [8]; in the test with Bacillus subtilis [10]; in the test with Pseudomonas aeruginosa [11]; with Staphylococcus aureus [12]) was 10 µg/mL (≈ 30.2 µM) each time.
For `Cc1cc(/N=C2\C(=O)N(Cc3ccccc3)c3ccc(OC(F)(F)F)cc32)ccc1N1C(=O)c2ccc(Cl)cc2C1=O`, the “diameter of the inhibition zone (DIZ)” value was determined as 8 mm in [1]; 12 mm in the test on Proteus vulgaris [2]; 17 mm in the test with Escherichia coli [3]; 10 mm in the test on Pseudomonas aeruginosa [4]; 12 mm in the test with Bacillus subtilis [5]; 14 mm in the test on Staphylococcus aureus [7]. For the same molecule, the MIC in the test on Proteus vulgaris [6] worked out at 20 µg/mL (≈ 33.9 µM); in [8] it was 20 µg/mL (≈ 33.9 µM); with Escherichia coli [9] it was 15 µg/mL (≈ 25.4 µM); in the test with Bacillus subtilis [10], 25 µg/mL (≈ 42.4 µM); in the test on Pseudomonas aeruginosa [11], 20 µg/mL (≈ 33.9 µM); in the test on Staphylococcus aureus [12], 25 µg/mL (≈ 42.4 µM).
Take `Cc1cc(/N=C2\C(=O)N(Cc3ccccc3)c3ccc([N+](=O)[O-])cc32)ccc1N1C(=O)c2ccc(Cl)cc2C1=O`: the “diameter of the inhibition zone (DIZ)” value in test [1] came to 10 mm; in the test on Proteus vulgaris [2] it was 14 mm; with Escherichia coli [3], 16 mm; in the test with Pseudomonas aeruginosa [4] it was 14 mm; with Bacillus subtilis [5], 10 mm; with Staphylococcus aureus [7] it was 12 mm. For the same molecule, the MIC in the test on Proteus vulgaris [6] is 15 µg/mL (≈ 27.2 µM); in test [8] it was 15 µg/mL (≈ 27.2 µM); with Escherichia coli [9], 15 µg/mL (≈ 27.2 µM); in the test with Bacillus subtilis [10] it was 25 µg/mL (≈ 45.4 µM); with Pseudomonas aeruginosa [11] it was 15 µg/mL (≈ 27.2 µM); in the test on Staphylococcus aureus [12], 30 µg/mL (≈ 54.5 µM).
`Cc1cc(/N=C2\C(=O)Nc3ccc(OC(F)(F)F)cc32)ccc1N1C(=O)c2ccc(Cl)cc2C1=O`: the “diameter of the inhibition zone (DIZ)” value in test [1] amounted to 18 mm; with Proteus vulgaris [2], 14 mm; in the test on Escherichia coli [3], 24 mm; in the test on Pseudomonas aeruginosa [4] it was 20 mm; in the test on Bacillus subtilis [5], 16 mm; in the test with Staphylococcus aureus [7], 18 mm. Besides, the MIC with Proteus vulgaris [6] stood at 15 µg/mL (≈ 30 µM); in test [8], 10 µg/mL (≈ 20 µM); in the test on Escherichia coli [9], 10 µg/mL (≈ 20 µM); in the test with Bacillus subtilis [10], 15 µg/mL (≈ 30 µM); in the test with Pseudomonas aeruginosa [11] it was 10 µg/mL (≈ 20 µM); in the test with Staphylococcus aureus [12], 10 µg/mL (≈ 20 µM).
Take `Cc1cc(/N=C2\C(=O)N(S(C)(=O)=O)c3ccc(OC(F)(F)F)cc32)ccc1N1C(=O)c2ccc(Cl)cc2C1=O`: the “diameter of the inhibition zone (DIZ)” value in [1] came out at 18 mm; with Proteus vulgaris [2] it was 16 mm; in the test with Escherichia coli [3], 22 mm; with Pseudomonas aeruginosa [4], 14 mm; with Bacillus subtilis [5] it was 18 mm; in the test with Staphylococcus aureus [7], 16 mm. Further, the MIC came out at 15 µg/mL (≈ 26 µM) in the test with Proteus vulgaris [6]; 10 µg/mL (≈ 17.3 µM) in test [8]; 10 µg/mL (≈ 17.3 µM) with Escherichia coli [9]; 15 µg/mL (≈ 26 µM) in the test on Bacillus subtilis [10]; 15 µg/mL (≈ 26 µM) in the test on Pseudomonas aeruginosa [11]; 15 µg/mL (≈ 26 µM) in the test on Staphylococcus aureus [12].
In the case of `CCCN1C(=O)/C(=N\c2ccc(N3C(=O)c4ccc(Cl)cc4C3=O)c(C)c2)c2cc([N+](=O)[O-])ccc21`, the “diameter of the inhibition zone (DIZ)” value in test [1] worked out at 12 mm; with Proteus vulgaris [2], 12 mm; with Escherichia coli [3], 12 mm; in the test on Pseudomonas aeruginosa [4] it was 10 mm; with Bacillus subtilis [5], 10 mm; with Staphylococcus aureus [7], 10 mm. Also, the MIC in the test on Proteus vulgaris [6] was 20 µg/mL (≈ 39.8 µM); in [8], 15 µg/mL (≈ 29.8 µM); in the test with Escherichia coli [9], 20 µg/mL (≈ 39.8 µM); in the test on Bacillus subtilis [10] it was 30 µg/mL (≈ 59.7 µM); with Pseudomonas aeruginosa [11], 20 µg/mL (≈ 39.8 µM); in the test with Staphylococcus aureus [12] it was 30 µg/mL (≈ 59.7 µM).
For `C#CCN1C(=O)/C(=N\c2ccc(N3C(=O)c4ccc(Cl)cc4C3=O)c(C)c2)c2cc(OC(F)(F)F)ccc21`, the “diameter of the inhibition zone (DIZ)” value is recorded as 10 mm in test [1]; 14 mm in the test on Proteus vulgaris [2]; 10 mm with Escherichia coli [3]; 12 mm in the test on Pseudomonas aeruginosa [4]; 11 mm in the test with Bacillus subtilis [5]; 10 mm with Staphylococcus aureus [7]. Besides, the MIC in the test on Proteus vulgaris [6] came out at 15 µg/mL (≈ 27.9 µM); in test [8], 15 µg/mL (≈ 27.9 µM); in the test with Escherichia coli [9], 20 µg/mL (≈ 37.2 µM); in the test on Bacillus subtilis [10], 25 µg/mL (≈ 46.5 µM); in the test on Pseudomonas aeruginosa [11], 15 µg/mL (≈ 27.9 µM); with Staphylococcus aureus [12], 30 µg/mL (≈ 55.8 µM).
For `C#CCN1C(=O)/C(=N\c2ccc(N3C(=O)c4ccc(Cl)cc4C3=O)c(C)c2)c2cc([N+](=O)[O-])ccc21`, the “diameter of the inhibition zone (DIZ)” value in test [1] was determined as 8 mm; in the test on Proteus vulgaris [2], 10 mm; in the test with Escherichia coli [3], 18 mm; with Pseudomonas aeruginosa [4], 14 mm; in the test on Bacillus subtilis [5] it was 8 mm; with Staphylococcus aureus [7] it was 13 mm. Besides, the MIC in the test on Proteus vulgaris [6] stood at 20 µg/mL (≈ 40.1 µM); in test [8], 20 µg/mL (≈ 40.1 µM); in the test with Escherichia coli [9], 15 µg/mL (≈ 30.1 µM); with Bacillus subtilis [10] it was 30 µg/mL (≈ 60.1 µM); in the test with Pseudomonas aeruginosa [11], 15 µg/mL (≈ 30.1 µM); in the test on Staphylococcus aureus [12] it was 25 µg/mL (≈ 50.1 µM).
`Cc1cc(/N=C2\C(=O)N(S(=O)(=O)c3ccc([N+](=O)[O-])cc3)c3ccc(OC(F)(F)F)cc32)ccc1N1C(=O)c2ccc(Cl)cc2C1=O`: the “diameter of the inhibition zone (DIZ)” value in test [1] was 18 mm; with Proteus vulgaris [2] it was 22 mm; with Escherichia coli [3], 20 mm; with Pseudomonas aeruginosa [4], 18 mm; in the test with Bacillus subtilis [5], 14 mm; with Staphylococcus aureus [7], 20 mm. The MIC in the test with Proteus vulgaris [6] is 10 µg/mL (≈ 14.6 µM); in [8] it was 10 µg/mL (≈ 14.6 µM); in the test on Escherichia coli [9] it was 10 µg/mL (≈ 14.6 µM); in the test on Bacillus subtilis [10], 15 µg/mL (≈ 21.9 µM); in the test with Pseudomonas aeruginosa [11], 10 µg/mL (≈ 14.6 µM); in the test on Staphylococcus aureus [12] it was 10 µg/mL (≈ 14.6 µM).

These data come from ChEMBL document CHEMBL3045563, “Synthesis and in vitro antibacterial activity of schiff bases of N-substituted isatins as effective scaffolds” (2013).
